Source: ChEMBL document CHEMBL5729018, “MAPK inhibitors” (2022)

Tests used:
[1] = target: T1, Mitogen-activated protein kinase 14 (Homo sapiens, UniProt Q16539); assay: (§1) Fluorescence polarisation (FP) assay for active p38alpha MARK: FP signals were measured with a PHERAstar microplate reader (BMG Labtech) using black, low-binding half-area 96 well plates (Corning). Each binding data point was carried out in duplicate or triplicate. Data were recorded in millipolarisation (mP) units and measured at an excitation wavelength of 485 nm and an emission wavelength of 520 nm. Tris(hydroxymethyl)aminomethane (Tris) assay buffer was used in all binding experiments and consisted of 10 mM Tris, […], and 3.5 mM 3-((3-cholamidopropyl)dimethylammonium)-1-propanesulfonate (Chaps) at pH 8.0. The recombinant active His-tag p38α MAPK used in the ligand binding assays were prepared as described by Bukhtiyarova et al.
[2] = target: T1, Mitogen-activated protein kinase 14; assay: Each binding data point was carried out in duplicate or triplicate. Data were recorded in millipolarisation (mP) units and measured at an excitation wavelength of 485 nm and an emission wavelength of 520 nm. Tris(hydroxymethyl)aminomethane (Tris) assay buffer was used in all binding experiments and consisted of 10 mM Tris, 50 nM potassium chloride, and 3.5 mM 3-((3-cholamidopropyl)dimethylammonium)-1-propanesulfonate (Chaps) at pH 8.0.
[3] = target: T1, Mitogen-activated protein kinase 14; assay: as §1, with “assay:” for “assay for active p38alpha MARK:”, “8.0.” for “8.0. The recombinant active His-tag p38α MAPK used in the ligand binding assays were prepared as described by Bukhtiyarova et al.”

T1 sequence (Q16539 whole entry): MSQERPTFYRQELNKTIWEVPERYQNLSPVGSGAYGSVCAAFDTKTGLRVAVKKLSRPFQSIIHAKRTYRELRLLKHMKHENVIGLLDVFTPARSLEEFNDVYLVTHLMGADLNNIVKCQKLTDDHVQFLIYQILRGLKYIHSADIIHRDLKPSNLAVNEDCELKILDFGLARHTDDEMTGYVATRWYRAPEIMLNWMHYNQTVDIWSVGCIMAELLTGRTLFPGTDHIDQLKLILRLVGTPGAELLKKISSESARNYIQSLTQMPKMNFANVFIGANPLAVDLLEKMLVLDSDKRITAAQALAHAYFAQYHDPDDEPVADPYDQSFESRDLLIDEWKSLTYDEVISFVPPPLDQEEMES

Structure (SMILES)	Ki [1] [nM]	Ki [2] [nM]	IC50 [3] [nM]
OCC#Cc1cc(-c2ccncc2)c(-c2ccc(F)cc2)s1	630	2100	–
OCCC#Cc1cc(-c2ccncc2)c(-c2ccc(F)cc2)s1	560	2000	160
OCCC#Cc1nc(-c2ccc(F)cc2)c(-c2ccncc2)n1CCCc1ccccc1 [RWJ-67657]	–	–	30
